From ChEMBL document CHEMBL1201862, “PubChem BioAssay data set” (2004)
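Values below derive from 48-hour exposures of cells grown in 96-well plates, with endpoints linearly interpolated between the two concentrations bracketing the appropriate inhibition level. GI50 marks 50% less growth.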 The source made the active and inactive calls. No stated cut-off is given here; in the data, active = GI50 up to about 1.1 µM and inactive = higher.

Key:
Assay in all cases: NCI tumour cell line growth inhibition, 48 h
786-0 = test system: 786-0
CCRF-CEM = test system: CCRF-CEM
COLO 205 = test system: COLO 205
DU-145 = test system: DU-145
HCT-15 = test system: HCT-15
HT-29 = test system: HT-29
Hs-578T = test system: Hs-578T
MDA-MB-231 = test system: MDA-MB-231
MDA-MB-435 = test system: MDA-MB-435
Malme-3M = test system: Malme-3M
NCI-H226 = test system: NCI-H226
OVCAR-5 = test system: OVCAR-5
SF-295 = test system: SF-295
SF-539 = test system: SF-539
SNB-19 = test system: SNB-19
SNB-75 = test system: SNB-75
T47D = test system: T47D
U-251 = test system: U-251
UACC-62 = test system: UACC-62
A498 = test system: A498

Row | SMILES | GI50 (786-0) | GI50 (CCRF-CEM) | GI50 (COLO 205) | GI50 (DU-145) | GI50 (HCT-15) | GI50 (HT-29) | GI50 (Hs-578T) | GI50 (MDA-MB-231) | GI50 (MDA-MB-435) | GI50 (Malme-3M) | GI50 (NCI-H226) | GI50 (OVCAR-5) | GI50 (SF-295) | GI50 (SF-539) | GI50 (SNB-19) | GI50 (SNB-75) | GI50 (T47D) | GI50 (U-251) | GI50 (UACC-62) | GI50 (A498)
1 | CCOC(=O)C(Cl)(NC(=O)c1c(F)c(F)c(F)c(F)c1F)C(F)(F)F (configuration not stated) | > 100 µM (inactive) | > 100 µM (inactive) | > 100 µM (inactive) | > 100 µM (inactive) | > 100 µM | > 100 µM (inactive) | > 100 µM (inactive) | > 100 µM (inactive) | > 100 µM (inactive) | > 100 µM (inactive) | > 100 µM (inactive) | > 100 µM (inactive) | > 100 µM (inactive) | > 100 µM (inactive) | > 100 µM (inactive) | > 100 µM (inactive) | > 100 µM (inactive) | > 100 µM (inactive) | > 100 µM (inactive) | –
2 | Cc1c(Cl)c(S(N)(=O)=O)cc(S(N)(=O)=O)c1NC(=O)c1ccc(Cl)cc1 | > 100 µM (inactive) | > 100 µM (inactive) | > 100 µM (inactive) | > 100 µM (inactive) | > 100 µM | > 100 µM (inactive) | > 100 µM (inactive) | – | > 100 µM (inactive) | > 100 µM (inactive) | > 100 µM (inactive) | > 100 µM (inactive) | > 100 µM (inactive) | – | > 100 µM (inactive) | > 100 µM (inactive) | > 100 µM (inactive) | > 100 µM (inactive) | > 100 µM (inactive) | > 100 µM (inactive)
3 | O=C(O[C@H](/C=C/c1ccccc1)P1(=O)N(Cc2ccccc2)[C@H]2CCCC[C@@H]2N1Cc1ccccc1)c1ccccc1 | 3.7 µM (inactive) | 3.48 µM (inactive) | 1.68 µM (inactive) | – | 3.22 µM | 3.8 µM (inactive) | 9.31 µM (inactive) | 3.49 µM (inactive) | 3.05 µM (inactive) | 2.89 µM (inactive) | 2.33 µM (inactive) | 4.94 µM (inactive) | 3.74 µM (inactive) | 3.72 µM (inactive) | 5.31 µM (inactive) | – | 0.877 µM (active) | 4.01 µM (inactive) | 5.33 µM (inactive) | 7.48 µM (inactive)
4 | Cc1ccc2c(c1C)C(=O)/C(=C/c1ccccc1C(=O)O)C2 | > 100 µM (inactive) | 76.9 µM (inactive) | > 100 µM (inactive) | > 100 µM (inactive) | > 100 µM | > 100 µM (inactive) | > 100 µM (inactive) | – | > 100 µM (inactive) | > 100 µM (inactive) | > 100 µM (inactive) | > 100 µM (inactive) | > 100 µM (inactive) | > 100 µM (inactive) | > 100 µM (inactive) | > 100 µM (inactive) | > 100 µM (inactive) | > 100 µM (inactive) | > 100 µM (inactive) | > 100 µM (inactive)
5 | CC(C)N(C(=O)C12C3(C(=O)OC(C)(C)C)C4C5(C#N)C3C1(C(=O)OC(C)(C)C)C5C42C(=O)OC(C)(C)C)C(C)C (configuration not stated) | 34.6 µM (inactive) | 10.9 µM (inactive) | 21.5 µM (inactive) | > 100 µM (inactive) | 89.5 µM | 34.6 µM (inactive) | 28.7 µM (inactive) | 23 µM (inactive) | 27.5 µM (inactive) | – | – | > 100 µM (inactive) | 58.2 µM (inactive) | > 100 µM (inactive) | > 100 µM (inactive) | 0.149 µM (active) | 31.9 µM (inactive) | 83.9 µM (inactive) | 40.6 µM (inactive) | > 100 µM (inactive)
6 | CCC1(CC)C(=O)N(C(=O)c2ccc(Cl)cc2)N(C(=O)c2ccccc2Cl)C1=O | 56.8 µM (inactive) | 40.8 µM (inactive) | > 100 µM (inactive) | > 100 µM (inactive) | 41 µM | 10.7 µM (inactive) | 43.5 µM (inactive) | 50.5 µM (inactive) | 11.2 µM (inactive) | 35.7 µM (inactive) | 16.2 µM (inactive) | > 100 µM (inactive) | 63.5 µM (inactive) | – | 66.1 µM (inactive) | 16.1 µM (inactive) | 62.7 µM (inactive) | 33.3 µM (inactive) | 85.3 µM (inactive) | –
7 | CS/C=C\C(=O)O[C@H]1C[C@@H]2[C@@H](O)c3occ(C)c3C[C@]2(C)[C@@H](C)C1 | 16.6 µM (inactive) | 27.3 µM (inactive) | 17.9 µM (inactive) | 27.9 µM (inactive) | 30.1 µM | 22.6 µM (inactive) | 29.6 µM (inactive) | 22.4 µM (inactive) | 23.1 µM (inactive) | 18.3 µM (inactive) | 13.4 µM (inactive) | 34.8 µM (inactive) | 29.6 µM (inactive) | 21.7 µM (inactive) | 35.6 µM (inactive) | – | 24.4 µM (inactive) | 2.96 µM (inactive) | 17.9 µM (inactive) | –
8 | COc1ccc(CNc2nc3cc(C(F)(F)F)ccc3nc2C(=O)O)cc1 | 23.1 µM (inactive) | 27.1 µM (inactive) | 22.5 µM (inactive) | 26.7 µM (inactive) | 22.6 µM | 24 µM (inactive) | – | 26.9 µM (inactive) | 21.3 µM (inactive) | – | 40 µM (inactive) | 28.4 µM (inactive) | 32 µM (inactive) | 23 µM (inactive) | 31.2 µM (inactive) | 38 µM (inactive) | 25.7 µM (inactive) | 28.6 µM (inactive) | 21.9 µM (inactive) | 21.5 µM (inactive)
9 | NNC(=S)N/N=C(\C(=O)Nc1cccc(O)c1)C1C(=O)NC(=S)NC1=O | > 100 µM (inactive) | > 100 µM (inactive) | – | – | > 100 µM | > 100 µM (inactive) | > 100 µM (inactive) | > 100 µM (inactive) | > 100 µM (inactive) | > 100 µM (inactive) | > 100 µM (inactive) | > 100 µM (inactive) | > 100 µM (inactive) | > 100 µM (inactive) | > 100 µM (inactive) | > 100 µM (inactive) | > 100 µM (inactive) | > 100 µM (inactive) | > 100 µM (inactive) | > 100 µM (inactive)
10 | C1CSCCSCCCSCCSCCCSCCSCCCSCCSC1 | > 100 µM (inactive) | > 100 µM (inactive) | > 100 µM (inactive) | > 100 µM (inactive) | > 100 µM | > 100 µM (inactive) | > 100 µM (inactive) | – | > 100 µM (inactive) | > 100 µM (inactive) | > 100 µM (inactive) | > 100 µM (inactive) | > 100 µM (inactive) | > 100 µM (inactive) | > 100 µM (inactive) | – | 57 µM (inactive) | > 100 µM (inactive) | – | > 100 µM (inactive)
11 | CCN1CCCc2cc3c(C(F)(F)F)cc(=O)oc3cc21 | 39.4 µM (inactive) | – | 63.8 µM (inactive) | > 100 µM (inactive) | > 100 µM | 48.8 µM (inactive) | – | 53.2 µM (inactive) | 73.1 µM (inactive) | – | 64.6 µM (inactive) | > 100 µM (inactive) | 63.4 µM (inactive) | > 100 µM (inactive) | > 100 µM (inactive) | 42.5 µM (inactive) | 65.5 µM (inactive) | > 100 µM (inactive) | > 100 µM (inactive) | 45.9 µM (inactive)
12 | CCCC(=O)Oc1c2ccsc2c(OC(=O)CCC)c2ccsc12 | 4.55 µM (inactive) | 1.54 µM (inactive) | 10.9 µM (inactive) | 0.857 µM (active) | 1.21 µM | 5.35 µM (inactive) | – | 1.49 µM (inactive) | 0.305 µM (active) | 0.359 µM (active) | 4 µM (inactive) | 2.76 µM (inactive) | 0.457 µM (active) | 0.982 µM (active) | 2.6 µM (inactive) | 1.83 µM (inactive) | 6.37 µM (inactive) | 1.36 µM (inactive) | 1.14 µM (inactive) | 4.6 µM (inactive)
13 | c1ccc2[nH]c3[nH]c4[nH]c5ccccc5[nH]c4[nH]c3[nH]c2c1 | > 100 µM (inactive) | > 100 µM (inactive) | > 100 µM (inactive) | > 100 µM (inactive) | > 100 µM | > 100 µM (inactive) | 60.7 µM (inactive) | > 100 µM (inactive) | > 100 µM (inactive) | > 100 µM (inactive) | > 100 µM (inactive) | 44.5 µM (inactive) | 66.2 µM (inactive) | > 100 µM (inactive) | > 100 µM (inactive) | 21 µM (inactive) | – | > 100 µM (inactive) | > 100 µM (inactive) | > 100 µM (inactive)
14 | COc1ccc(C2C=C(c3ccccc3)Nc3nnnn32)cc1 (configuration not stated) | 27.5 µM (inactive) | > 100 µM (inactive) | > 100 µM (inactive) | 28.4 µM (inactive) | 31 µM | 18.1 µM (inactive) | 40.6 µM (inactive) | 26.6 µM (inactive) | 76.6 µM (inactive) | – | 64 µM (inactive) | 37.7 µM (inactive) | 31 µM (inactive) | 23.7 µM (inactive) | 97.9 µM (inactive) | – | 19 µM (inactive) | 19.7 µM (inactive) | 50.4 µM (inactive) | 34.4 µM (inactive)
15 | CC(ON1[C@](C)(c2ccccc2)CC[C@@]1(C)c1ccccc1)c1ccccc1 (some centres not stated) | 52.4 µM (inactive) | 22.7 µM (inactive) | 43.4 µM (inactive) | 34.8 µM (inactive) | > 100 µM | 31.2 µM (inactive) | 37.3 µM (inactive) | 43.3 µM (inactive) | 44.4 µM (inactive) | 32.5 µM (inactive) | 40.9 µM (inactive) | 41.1 µM (inactive) | 26.3 µM (inactive) | > 100 µM (inactive) | 25.5 µM (inactive) | 25.9 µM (inactive) | 24.1 µM (inactive) | 31 µM (inactive) | – | –
